The text below walks through data of patent US11312719B2, “9-substituted amino triazolo quinazoline derivatives as adenosine receptor antagonists, pharmaceutical compositions and their use” (Merck Sharp & Dohme Corp., priority 2018, dated 2022).

The target in assay [1] is human A2A receptors (Homo sapiens (Human), UniProt P29274). Kind of assay: A2A antagonism in cAMP cell-based assay (LANCE cAMP, HEK293). Conditions: HEK293 cells expressing human A2A receptor. The protocol: Measurement of A2A and A2B Antagonism in cAMP Cell-Based Assay
The ability of compounds to antagonize human A2A and A2B adenosine receptors was determined using a kit to measure changes in intracellular cyclic AMP levels (LANCE cAMP 384 Kit, Perkin Elmer, Cat. No. AD0264). HEK293 cells recombinantly expressing either human A2A or A2B receptors, previously frozen in Recovery Medium (Life Technologies, Cat. No. 12648-010) were thawed and diluted into stimulation buffer (HBSS (Hyclone SH 30268.01), 5 mM HEPES (Gibco 15630-106), 200 nM rolipram (Tocris, Cat. No. 0905), and 1.5% (V/v) BSA stabilizer (kit component). The cell suspension was centrifuged at 200×g for 10 min and then resuspended in stimulation buffer, supplemented with a 1:10 000 dilution of Alexa Fluor 647 anti-cAMP antibody, to a density of 6.0×10^5 cells/mL. A Labcyte Echo 550 acoustic dispenser was used to transfer up to 25 nL of test compound dissolved in DMSO into the wells of a dry Optiplate-384 plate (Perkin Elmer, Cat. No. 6008289). All subsequent liquid additions were performed using a multichannel pipettor. Next, 5 μL of the cell suspension was added to the wells of the Optiplate-384 and incubated for 30 min. at 37° C. and 5% CO2 in a humidified environment. After this time 5 μL of either 300 nM or 600 nM adenosine (Sigma Cat. No. A9251) for A2A and A2B respectively was added and incubated for 30 minutes at 37° C. and 5% CO2 in a humidified environment. At this time detection mix was prepared by combining the LANCE Eu-W8044 labeled streptavidin and Biotin-cAMP in detection buffer according to the manufacturers protocol. 10 μL of the detection mix was added to each well of the Optiplate-384 which was covered with a plate seal and incubated under ambient conditions for 2 hours prior to reading the plate using an Envision (Perkin Elmer, Waltham, Mass.) multimode plate reader. Data was normalized by defining minimal effect as stimulation in the presence of 0.25% (v/v) DMSO and maximal effect as stimulation in the presence of 1 μM ZM241385 (Cayman, Cat. No. 1036). Curve fitting of the percent effect data versus the log of compound concentration used a 4-parameter concentration response curve fitting algorithm to calculate IC50 values. Compound concentrations tested were 10,000, 3,333, 1,111, 370.4, 123.4, 41.2, 13.7, 4.6, 1.5 and 0.5 nM with 0.25% residual DMSO.

The target in assay [2] is human A2a adenosine receptor (Homo sapiens (Human), UniProt P29274). Kind of assay: A2a receptor affinity radioligand binding assay ([3H] SCH58261). Conditions: membranes from HEK293 or CHO cells expressing human A2a receptor. A digest of the protocol:
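Membranes from HEK293 or CHO cells expressing human A2a were preincubated 15–30 min at room temperature with compound, then incubated 60 min at room temperature with [3H]SCH58261 (diluted to 4 nM) in 50 mM Tris pH 7.4, 10 mM MgCl2, 0.005% Tween20. Bound radioactivity was collected by filtration; nonspecific binding defined with 1 μM ZM241385; IC50 from 4-parameter logistic fit.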

In assay [3] the target is human A2b adenosine receptor (Homo sapiens (Human), UniProt P29275). Kind of assay: A2b radioligand filtration binding assay. Conditions: for IC50: membranes from HEK293 cells expressing human A2b receptor. The procedure, abridged: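 Membranes from HEK293 cells expressing human A2b receptor preincubated with compound 15 to 30 min at room temperature, then tritiated proprietary A2b antagonist (diluted to 14 nM before addition) added in PBS pH 7.4 for 60 min at room temperature. Bound radioactivity by filtration and scintillation; non-specific binding with 20 μM NECA; IC50 by 4-parameter logistic fit.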

SMILES strings stand for the structures.

Sequence of human A2a adenosine receptor (P29274 whole entry): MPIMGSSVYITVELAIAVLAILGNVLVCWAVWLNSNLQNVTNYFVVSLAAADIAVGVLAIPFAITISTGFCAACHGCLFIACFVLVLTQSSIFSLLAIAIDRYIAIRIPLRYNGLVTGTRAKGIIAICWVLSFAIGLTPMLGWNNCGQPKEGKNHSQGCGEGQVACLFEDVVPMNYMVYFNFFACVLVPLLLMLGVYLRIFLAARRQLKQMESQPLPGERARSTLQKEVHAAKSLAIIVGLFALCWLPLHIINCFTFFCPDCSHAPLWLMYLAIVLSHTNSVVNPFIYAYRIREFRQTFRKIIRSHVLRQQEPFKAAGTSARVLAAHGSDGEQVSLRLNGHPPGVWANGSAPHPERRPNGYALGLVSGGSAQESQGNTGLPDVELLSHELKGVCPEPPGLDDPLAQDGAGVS
Sequence of human A2A receptors (P29274 whole entry): as above
Sequence of human A2b adenosine receptor (P29275 whole entry): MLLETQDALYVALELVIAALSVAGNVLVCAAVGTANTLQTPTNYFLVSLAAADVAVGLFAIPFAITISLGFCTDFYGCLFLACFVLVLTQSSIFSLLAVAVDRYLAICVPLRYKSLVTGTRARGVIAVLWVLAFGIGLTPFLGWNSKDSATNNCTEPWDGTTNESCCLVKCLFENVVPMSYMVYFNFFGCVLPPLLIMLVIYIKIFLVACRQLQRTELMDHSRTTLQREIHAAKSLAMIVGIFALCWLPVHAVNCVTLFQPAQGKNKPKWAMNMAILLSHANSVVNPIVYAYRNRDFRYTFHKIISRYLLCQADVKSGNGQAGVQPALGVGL

On to `COc1cc(F)cc2c1nc(N)n1nc(C3CC(C)CN(c4cn(C(C)C(C)O)nc4C)C3)nc21` (single isomer, unassigned) [Example 227, (2S,3S or 2R,3R)-3-(4-((3S,5R or 3R,5S)-3-(5-amino-9-fluoro-7-methoxy-[1,2,4]triazolo[1,5-c]quinazolin-2-yl)-5-methylpiperidin-1-yl)-3-methyl-1H-pyrazol-1-yl)butan-2-ol], for which the IC50 (usually the concentration at which inhibition is half-maximal) in assay [1] is 40.2 nM.

With `COc1cc(F)cc2c1nc(N)n1nc(C3CC(C)CN(c4cn(C(C)C(C)O)nc4C)C3)nc21` (single isomer, unassigned) [Example 226, (2R,3R or 2S,3S)-3-(4-((3S,5R or 3R,5S)-3-(5-amino-9-fluoro-7-methoxy-[1,2,4]triazolo[1,5-c]quinazolin-2-yl)-5-methylpiperidin-1-yl)-3-methyl-1H-pyrazol-1-yl)butan-2-ol], half-maximal inhibition in assay [1] (IC50) was put at 17.6 nM. This IC50 is about 2.3-fold lower than that of the compound before.

In the case of `COc1cc(F)cc2c1nc(N)n1nc([C@@H]3CCCN(c4ccc(OC(C)C)nc4)C3)nc21` [Example 35, (R)-9-fluoro-2-(1-(6-isopropoxypyridin-3-yl)piperidin-3-yl)-7-methoxy-[1,2,4]triazolo[1,5-c]quinazolin-5-amine], the concentration for half-maximal inhibition (IC50) in assay [2] was found to be 0.6 nM; in assay [3], 12.2 nM.

`COc1cc(F)cc2c1nc(N)n1nc(C3CC(C)CN(c4cn(C(C)C(C)O)nc4C)C3)nc21` (single isomer, unassigned) [Example 225, (2R,3R or 2S,3S)-3-(4-((3R,5S or 3S,5R)-3-(5-amino-9-fluoro-7-methoxy-[1,2,4]triazolo[1,5-c]quinazolin-2-yl)-5-methylpiperidin-1-yl)-3-methyl-1H-pyrazol-1-yl)butan-2-ol]: inhibition in assay [1] was half-maximal at 0.4 nM (IC50).

On to `COc1cc2nc(N)n3nc(C4CCC(C)N(c5cn(CC(C)(C)O)nc5C)C4)nc3c2cc1F` [Example 53, 1-(4-((2R,5S, or 2S,5R)-5-(5-amino-9-fluoro-8-methoxy-[1,2,4]triazolo[1,5-c]quinazolin-2-yl)-2-methylpiperidin-1-yl)-3-methyl-1H-pyrazol-1-yl)-2-methylpropan-2-ol], for which the values for the IC50 in assay [2] and in assay [3] were 44.1 nM and 4240 nM, respectively.

In the case of `COc1cc(F)cc2c1nc(N)n1nc([C@@H]3CCCN(c4cnn(C)c4)C3)nc21` [Example 100, (R)-9-fluoro-7-methoxy-2-(1-(1-methyl-1H-pyrazol-4-yl)piperidin-3-yl)-[1,2,4]triazolo[1,5-c]quinazolin-5-amine], the IC50 in assay [2] turned out to be 1.4 nM; in assay [3] it was 4.8 nM.

Turning to `COc1cc2nc(N)n3nc([C@@H]4CC[C@H](C)N(c5cnn(C6CCC(C)(O)CC6)c5)C4)nc3c2cc1F` (single isomer, unassigned) [Example 96, rac-(1r,4s or 1r,4r)-4-(4-((2S,5R or 2R,5S)-5-(5-amino-9-fluoro-8-methoxy-[1,2,4]triazolo[1,5-c]quinazolin-2-yl)-2-methylpiperidin-1-yl)-1H-pyrazol-1-yl)-1-methylcyclohexan-1-ol], the IC50 in assay [2] turned out to be 0.7 nM; in assay [3] it was 24.6 nM.

In the case of `COc1cccc2c1nc(N)n1nc([C@@H]3CCC[C@](O)(c4cnn(CC(C)(C)O)c4)C3)nc21` (single isomer, unassigned) [Example 150, (1R,3R or 1S,3S)-3-(5-amino-7-methoxy-[1,2,4]triazolo[1,5-c]quinazolin-2-yl)-1-(1-(2-hydroxy-2-methylpropyl)-1H-pyrazol-4-yl)cyclohexan-1-ol], the 50% inhibitory concentration (IC50) amounted to 1.4 nM in assay [2] and 181 nM in assay [3].

With `COc1cc2nc(N)n3nc([C@@H]4CCCN(c5cnn(CC(C)(C)O)c5)C4)nc3c2cc1F` [Example 7, (R)-1-(4-(3-(5-amino-9-fluoro-8-methoxy-[1,2,4]triazolo[1,5-c]quinazolin-2-yl)piperidin-l-yl)-1H-pyrazol-1-yl)-2-methylpropan-2-ol], the figures for the IC50 in assay [2] and in assay [3] were 3.7 nM and 104 nM, respectively.

As for `COc1cc(F)cc2c1nc(N)n1nc([C@H]3CC[C@H](C)N(c4cn(CC(C)(C)O)nc4C)C3)nc21` (single isomer, unassigned) [Example 116, 1-(4-((2S or 2R,5S or 5R)-5-(5-amino-9-fluoro-7-methoxy-[1,2,4]triazolo[1,5-c]quinazolin-2-yl)-2-methylpiperidin-1-yl)-3-methyl-1H-pyrazol-1-yl)-2-methylpropan-2-ol], in assay [2], the IC50 came out at 207 nM. Moreover, in assay [3] (@ 10000 nM), the “A2B binding % Inh. @ 10000 nM” value is 35% Inh.

`COc1cc(F)cc2c1nc(N)n1nc(C3(F)CCCN(c4cnn(CC(C)(C)O)c4)C3)nc21` (single isomer, unassigned) [Example 134, (R or S)-1-(4-(3-(5-amino-9-fluoro-7-methoxy-[1,2,4]triazolo[1,5-c]quinazolin-2-yl)-3-fluoropiperidin-1-yl)-1H-pyrazol-1-yl)-2-methylpropan-2-ol]: the IC50 in assay [2] was found to be 124 nM; in assay [3], 4290 nM.

Take `COc1cc2nc(N)n3nc([C@@H]4CCCN(c5cnn([C@@H]6CCC[C@@]6(C)O)c5)C4)nc3c2cc1F` (single isomer, unassigned) [Example 82, (1R or 1S,2R or 2S)-2-(4-((R)-3-(5-amino-9-fluoro-8-methoxy-[1,2,4]triazolo[1,5-c]quinazolin-2-yl)piperidin-1-yl)-1H-pyrazol-1-yl)-1-methylcyclopentan-1-ol]: the half-inhibitory concentration (IC50) in assay [2] was 4.9 nM; in assay [3] it was 63 nM.

On to `COc1cc(F)cc2c1nc(N)n1nc(C3CC(F)CN(c4cnn(CC5(O)CCC5)c4)C3)nc21` (single isomer, unassigned) [Example 73, 1-(4-((3S,5R or 3R,5S)-3-(5-amino-9-fluoro-7-methoxy-[1,2,4]triazolo[1,5-c]quinazolin-2-yl)-5-fluoropiperidin-1-yl)-1H-pyrazol-1-yl)methyl)cyclobutan-1-ol], for which the values for the IC50 in assay [2] and in assay [3] were 436 nM and 5120 nM, respectively.

In assay [1], `COc1cc(F)cc2c1nc(N)n1nc(C3CC(C)CN(c4cn(C(C)C(C)O)nc4C)C3)nc21` (single isomer, unassigned) [Example 224, (2S,3S or 2R,3R)-3-(4-((3R,5S or 3S,5R)-3-(5-amino-9-fluoro-7-methoxy-[1,2,4]triazolo[1,5-c]quinazolin-2-yl)-5-methylpiperidin-1-yl)-3-methyl-1H-pyrazol-1-yl)butan-2-ol] had an IC50 of 0.4 nM. In other words, the sub-nanomolar range.

As for `COc1cc2nc(N)n3nc([C@@H]4CC[C@H](C)N(c5cnn([C@@H](C)C(C)(C)O)c5)C4)nc3c2cc1F` (single isomer, unassigned) [Example 49, (S or R)-3-(4-((2S,5R or 2R,5S)-5-(5-amino-9-fluoro-8-methoxy-[1,2,4]triazolo[1,5-c]quinazolin-2-yl)-2-methylpiperidin-1-yl)-1H-pyrazol-1-yl)-2-methylbutan-2-ol], the IC50 in assay [2] came to 0.3 nM; in assay [3], 2.7 nM.

`COc1cc2nc(N)n3nc([C@H]4CN(c5cnn(CC(C)(C)O)c5C)CCO4)nc3c2cc1F` [Example 141, (R)-1-(4-(2-(5-amino-9-fluoro-8-methoxy-[1,2,4]triazolo[1,5-c]quinazolin-2-yl)morpholino)-5-methyl-1H-pyrazol-1-yl)-2-methylpropan-2-ol]: the results for the IC50 in assay [2] and in assay [3] were 24.1 nM and 1760 nM, respectively.

For `COc1cc2nc(N)n3nc([C@@H]4CCCN(c5cnn(C6CCOCC6)c5C(F)F)C4)nc3c2cc1F` [Example 18, (R)-2-(1-(5-(difluoromethyl)-1-(tettahydro-2H-pyran-4-yl)-1H-pyrazol-4-yl)piperidin-3-yl)-9-fluoro-8-methoxy-[1,2,4]triazolo[1,5-c]quinazolin-5-amine], the results for the IC50 in assay [2] and in assay [3] were 0.7 nM and 13.5 nM, respectively.
